Reference: patent US20240252524A1 (Hovione Scientia Limited, priority 2021, published 2024)
“And” between values parts separate entries of the source, which are not always exact repeats. Equal values may be shown once. Read-outs that look alike come from different tables or passages of the source.

How the values were obtained:
[1] = Particle size by laser diffraction (Sympatec HELOS) before/after high shear mixing; type: physicochemical
Text: The particle size data were obtained from a Sympatec module HELOS (Helium-Neon Laser Optical System), dispersion Unit RODOS/M, potent products accessory ASPIROS, lens R5 (4.50 μm-875 μm) and R4 (1.80 μm-350 μm), conditions R5, 0.1 bar-1 bar, 18 mm/s, R4, 3 bar, 18 mm/s

[2] = Stability of ivermectin under the high shear mixer process; type: physicochemical; conditions: high shear mixer process of the invention
Text: Under the conditions set forth in this invention, ivermectin is submitted to high shear forces without suffering decomposition. High shear mixing processes provide stressful conditions which promote decomposition of the compounds submitted to such processes. The stressful conditions involve recirculating mixtures of the compounds with solvents, at very high speed, through mechanical systems which generate unaligned forces, driving to strong collisions between the particles and the mechanical parts of the high shear mixer and between the particles themselves. Such collisions break the particles of the product thus reducing their particle size. A side effect of the mechanical collisions is a significant increase in the temperature during the high shear mixer process. […] In fact, ivermectin is purified with good yields under the high shear process conditions set forth in this invention.

[3] = cited from earlier work
[4] = cited from earlier work; remark: listed apart in the source
[5] = room temperature, cited from earlier work

Substance: Ivermectin
- D (90) after high shear mixing ([1]; Example 1: ethanol/water/formamide/methylparaben, 2000 RPM, about 3 hours, 0-5° C.): 56 μm
- Dv(90) after high shear mixing ([1]; Example 2: ethanol/water/formamide/BHA, 2000 RPM, about 3 hours, 0-5° C.): 53 μm
- Dv(90) after high shear mixing ([1]; Example 3: ethanol (100 ml)/water (50 ml)/formamide/methylparaben, 2000 RPM, about 3 hours, 0-5° C.): 57 μm
- Dv(90) after high shear mixing ([1]; Example 4: water/isopropanol/formamide/methylparaben, 2000 RPM, about 3 hours, 0-5° C.): 56 μm
- Dv(90) after high shear mixing ([1]; Example 5: water (16 ml)/ethanol (16 ml)/formamide, 1000 RPM, about 2 hours, 0-5° C.): 42 μm
- Dv(90) after high shear mixing ([1]; Example 6: water (26 ml)/ethanol (30 ml)/formamide, 1000 RPM, about 2 hours, 0-5° C.): 36 μm
- Dv(90) after high shear mixing ([1]; Example 7: water (1 ml)/ethanol (30 ml)/formamide, 1000 RPM, about 2 hours, 0-5° C.): 56 μm
- D (90) / Dv(90) of starting ivermectin ([1]; before high shear mixing): 301 μm and 295 μm and 300 μm
- decomposition under high shear mixer process [2]: did not decompose the product
- optimum pH for ivermectin stability in solution [3]: 6.3
- solubility in water [4]: low solubility in water
- Pharmacopoeia Classification ([5]; Acetone): Soluble
- Solubility ([5]; Acetone): 81 mg/mL
- Pharmacopoeia Classification ([5]; Diethyl ether): Soluble
- Solubility ([5]; Diethyl ether): 61 mg/mL
- Pharmacopoeia Classification ([5]; Dimethylformamide): Freely soluble
- Solubility ([5]; Dimethylformamide): 510 mg/mL
- Pharmacopoeia Classification ([5]; Ethanol): Soluble
- Solubility ([5]; Ethanol): 97 mg/mL
- Pharmacopoeia Classification ([5]; Ethyl acetate): Freely soluble
- Solubility ([5]; Ethyl acetate): 240 mg/mL
- Pharmacopoeia Classification ([5]; Isopropanol (2-propanol)): Soluble
- Solubility ([5]; Isopropanol (2-propanol)): 70 mg/mL
- Pharmacopoeia Classification ([5]; Methanol): Freely soluble
- Solubility ([5]; Methanol): 220 mg/mL
- Pharmacopoeia Classification ([5]; Methyl Ethyl ketone): Freely soluble
- Solubility ([5]; Methyl Ethyl ketone): 320 mg/mL
- Pharmacopoeia Classification ([5]; Tetrahydrofuran): Freely soluble
- Solubility ([5]; Tetrahydrofuran): 390 mg/mL
- Pharmacopoeia Classification ([5]; Toluene): Soluble
- Solubility ([5]; Toluene): 63 mg/mL
- Pharmacopoeia Classification ([5]; Water): Practically Insoluble
- Solubility ([5]; Water): 0.000001 mg/mL
- Pharmacopoeia Classification ([5]; n-Hexane): Slightly soluble
- Solubility ([5]; n-Hexane): 0.69 mg/mL
- Pharmacopoeia Classification ([5]; p-Dioxane): Freely soluble
- Solubility ([5]; p-Dioxane): 430 mg/mL
